Assay results published in article PMC12392461, “Beyond Estrogenicity: A Comparative Assessment of Bisphenol A and Its Alternatives in In Vitro Assays Questions Safety of Replacements” (Environmental Science & Technology, 2025).
Read-outs that look alike come from different tables or passages of the source.

Key:
SH-SY5Y cells = details: for IC10, SH-S5Y5, NOI: cytotoxicity, NOI assay cells
Procedure: Cell culture conditions and bioassay protocols including response detection are provided in Text S2.1–2.4 and Table S3. − Cell viability was determined from cell confluency using an IncuCyte S3 Live-Cell Analysis System (Sartorius AG, Essen, Germany) before and after exposure, except for SH-SY5Y cells (live–dead staining with Nuclear Green LcS1 and propidium iodide, Abcam, UK). For metabolic activation experiments, cell viability was assessed using the ToxBLAzer DualScreen Kit (Thermo Fisher Scientific) to capture the remaining toxicity in ERα-UAS-bla GripTite after treatment with the aCYP catalyst (details in Text S2.4). […]
We measured the cytotoxicity of BPA and its alternatives in HEK293H (PPARγ), HEK293T (ERα), H4IIe (AhR CALUX), MCF7 (ARE/MMP), and differentiated SH-SY5Y cells (Table S6). […]
(§1) medium, supplemented with 2% B-27 Supplement and 2 mM GlutaMAX Supplement. SH - SY5Y cells were differentiated with 10 µM all-trans retinoic acid prior to the assay.
(§2) S2.2: Cell Seeding and Incubation. For all bioassays, cell suspensions in the respective assay medium were dispensed into each well of 384-well plates using a MultiFlo Dispenser (Biotek, (now Agilent), Winooski, VT, U.S.). After seeding, the plates were incubated at 37° C and 5% […]
(§3) NYC, U.S.) for AhR: 3250 cells/well. Black Collagen I coated plates were used (Product No.
(§4) S2.3: Chemical Dosing and Assay Analysis Procedures. The dosing procedure and high-throughput assay workflow have been described in detail before. 9 The dosing concentrations […]
(§5) Stock solutions were then either added directly to the respective cell culture medium or evaporated under nitrogen, followed by replenishment with fresh medium. The final solvent content in each well was kept below 1% for methanol, 0% for acetonitrile.
(§6) Dosing plates were prepared as 11 -step serial dilutions using a Hamilton Microlab Star robotic system (Hamilton, Bonaduz, Switzerland), and chemicals were dosed in duplicates by transferring 10 μL twice from the dosing plates to the cell plates . After quantifying cell confluency as described in S2. 4., the exposed cells were incubated at 37° C and 5% CO₂ for an additional 24 h. All chemicals were tested in all assays with at least three independent […]
(§7) S2.4: Cell Viability Measurement s and bioanalytical protocols . The confluency as a measure of cell viability was determined with an IncuCyte S3 Live -Cell Analysis System (Sartorius AG, Essen, Germany). With this method the confluency of cells in a microscopy image are normalized to control wells without cells and compared before and after 24 hours of exposure.
(§8) This method has been described previously 13. Cell viability of SH-SY5Y cells was measured […]
(§9) propidium iodide (PI, Abcam, Cambridge, U.K.).14 Nuclear Green LCS1 is a membrane-permeable dye that stains the nuclei of all cells, whereas PI only enters cells with compromised membrane integrity (non-viable cells). After staining, live cells show green nuclei without red fluorescence, while dead cells display both green and red nuclear fluorescence due to PI […]
intercalation. […]

[1] = system: Mitochondrial Membrane Potential; experiment: cells; details: for log(1/EC10) MMP: input of the ToxPi score, values up to 1.00; for Specificity ratio (SRbaseline) SRMMP: against baseline cytotoxicity; for Relative effect potency REPMMP: relative to BPA; for SR (MMP inhibition): specificity ratio; for EC10, linear: linear model
Description: All bioassay media components and the ERα-UAS-bla GripTite and PPARγ-UAS-bla cells were obtained from Thermo Fisher Scientific (Waltham, MA, USA). AREc32 reporter gene cells based on MCF7 were provided by C. Roland Wolf (Cancer Research UK); AhR CALUX cells (H4L7.5c2 derived from H4IIe) were provided by Michael Denison (UC Davis, USA); and SH-SY5Y cells were purchased from Sigma-Aldrich.
(§10) Cell culture conditions and bioassay protocols including response detection are provided in Text S2.1–2.4 and Table S3. − Cell viability was determined from cell confluency using an IncuCyte S3 Live-Cell Analysis System (Sartorius AG, Essen, Germany) before and after exposure, except for SH-SY5Y cells (live–dead staining with Nuclear Green LcS1 and propidium iodide, Abcam, UK). For metabolic activation experiments, cell viability was assessed using the ToxBLAzer DualScreen Kit (Thermo Fisher Scientific) to capture the remaining toxicity in ERα-UAS-bla GripTite after treatment with the aCYP catalyst (details in Text S2.4).
For ARE, the concentration that triggered an induction ratio of 1.5 (ECIR1.5) was used as the benchmark value, as detailed in Text S2.5. IC10 values also served as a threshold for data analysis in all assays; only concentrations below IC10 were considered when deriving EC10 or ECIR1.5. […]
S2: Cell culture and bioassays
S2.1: Cell Culturing Conditions
All suppliers and sources are given in detail in SI-Excel S3. The bioassay media for the different assays were prepared as follows: Assay medium for ER alpha-UAS-bla GripTite (ERα) and […]
2% charcoal-stripped FBS, and 100 U/mL penicillin-streptomycin. MitoOxTox and AhR assay medium was comprised of 90% DMEM with GlutaMAX, supplemented with 10% FBS, and 100 U/mL penicillin-streptomycin. […]
as §2, with “5% CO₂ for […]. The final cell densities and plate types were as follows: Black poly-D-lysine” for “5%”
(§11) 6500 cells/well, ERα: 5000 cells/well. White 384-well plates with a clear bottom (Product No.
as §3, §4
Stock solutions were then either

[2] = system: HEK293H, HEK293T, H4IIe, MCF7 and SH-SY5Y cells; details: for cytotoxicity,median REPBPA,IC10: median IC10 relative to BPA; for IC10,Median (M): median cytotoxicity of all cell lines; for IC10, median: median cytotoxicity over all cell lines
Procedure: as §10
For ARE, the concentration that triggered an induction ratio of 1.5 (ECIR1.5) was used as the benchmark value, as detailed in Text S2.5. IC10 values also served as a threshold for data analysis in all assays; only concentrations below IC10 were considered when deriving EC10 or ECIR1.5.
TR indicates whether the cytotoxicity is triggered by specific toxicity mechanisms (TR ≥ 10) or not (0.1< TR< 10). 3 TR=IC10,baseline/IC10 We measured the cytotoxicity of BPA and its alternatives in HEK293H (PPARγ), HEK293T (ERα), H4IIe (AhR CALUX), MCF7 (ARE/MMP), and differentiated SH-SY5Y cells (Table S6). […]
as §1
as §2, with “5% CO₂ for […]. The final cell densities and plate types were as follows: Black poly-D-lysine” for “5%”
as §11, §3, §4, §5, §6, §7, §8, §9
intercalation. Cell viability was calculated as the proportion of green-only nuclei relative to the […]
For experiments with the preceding aCYP activation, ERα cell viability was additionally calculated from the readout of the ToxBLAzer reagent. The ToxBLAzer assay was conducted following the manufacturer's instructions (Thermo Fisher, Waltham, MA, U.S.).13 Fluorescence

[3] = NOI bioassay cytotoxicity, dosing range all, linear model
[4] = NOI bioassay cytotoxicity, dosing range all, log-logistic model
[5] = Arec32, read-out: EC10, linear transformed
[6] = Arec32, read-out: EC10, MMP (M)
[7] = NOI bioassay cytotoxicity, dosing range all
[8] = against experimental cytotoxicity

SMILES	IC10, linear (SH-SY5Y cells; [3])	logIC10 (SH-SY5Y cells; [4])	EC10 ([1]; Arec32, read-out: EC10, linear) [M]	EC10 [1, 5] [M]	EC10 ([1]; Arec32, read-out: logEC10) [M]	EC10 ([1]; Arec32, read-out: EC10, MMP) [M]	EC10 [1, 6] [M]	IC10, linear transformed (SH-SY5Y cells; [7])	Toxic ratio (TR) TRNOI (SH-SY5Y cells; against baseline cytotoxicity)	IC10, SH-S5Y5, NOI (SH-SY5Y cells) [µM]	cytotoxicity,median REPBPA,IC10 [2]	IC10,Median (M) [2]	IC10, median [2] [µM]	Specificity ratio (SRbaseline) SRMMP [1]	Relative effect potency REPMMP [1]	other results
CC1(C)[C@H](O)C(C)(C)[C@H]1O [Trans TMCD]	no cytotoxicity	no cytotoxicity	0.0141	0.0185	0.0186											
CC(C)CC(C)(c1ccc(O)cc1)c1ccc(O)cc1 [BP-MIBK, 4,4'-(1,3-Dimethylbutylidene)diphenol]			7.7e-06	1.12e-05	1.15e-05	1.14e-05	1.14e-05									IC10, linear (SH-SY5Y cells): no cytotoxicity; logIC10 (SH-SY5Y cells; human, 24 h): -4.10
COC(=O)C(c1ccc(O)cc1)c1ccc(O)cc1 [Bz, Methyl bis(4-hydroxyphenyl)acetate]	3.73E-04	-3.30	3.72e-05	5.74e-05	6.46e-05			5.07E-04	0.85	373	0.19	3.73 × 10^–4 M	373			log(1/EC10) MMP [1]: 0.84
CC(C)c1cc(C(C)(C)c2ccc(O)c(C(C)C)c2)ccc1O [BPG, 2,2-Bis(4-hydroxy-3-isopropylphenyl)propane]	no cytotoxicity	-4.44	2.65e-06	3.08e-06	3.09e-06	3.12e-06	3.12e-06	3.61E-05	0.08	36.1	8.93	7.84 × 10^–6 M	7.84	1.70	8.97	Specificity ratio (SRcytotoxicity) SRMMP [1, 8]: 2.79
CC(C)(c1ccc(O)cc1)c1ccc(O)cc1 [BPA, 4,4'-(Propane-2,2-diyl)diphenol, reference compound]	no cytotoxicity	-3.62	2.1e-05	2.79e-05	2.82e-05	2.8e-05	2.8e-05	2.37E-04	0.0846	237				0.92	1.00	EC10 (MMP inhibition) [1]: 28 µM; Specificity ratio (SRcytotoxicity) SRMMP ([1]; human, 24 h): 2.92; log(1/EC10) MMP [1]: 0.71; SR (MMP inhibition) [1]: 3
CC(C)(c1cc(Br)c(O)c(Br)c1)c1cc(Br)c(O)c(Br)c1 [TBBPA, 3,3',5,5'-Tetrabromobisphenol A]	no cytotoxicity	no cytotoxicity	1.94e-05	2.89e-05	2.82e-05	2.83e-05	2.83e-05									
CC(C)Oc1ccc(S(=O)(=O)c2ccc(O)cc2)cc1 [D8, 4-((4-Isopropoxyphenyl)sulfonyl)phenol]			5.8e-05	5.14e-05	5.25e-05	5.2e-05	5.2e-05		0.22		0.21			2.47	0.54	IC10, linear (SH-SY5Y cells): no cytotoxicity; logIC10 (SH-SY5Y cells; human, 24 h): -3.31; Specificity ratio (SRcytotoxicity) SRMMP [1, 8]: 41.11; SR (MMP inhibition) [1]: 41
CC(c1ccc(O)cc1)c1ccc(O)cc1 [BPE, 4,4′-Ethylidenbisphenol]	5.29E-04	-3.55		3.01e-05	3.24e-05	3.21e-05	3.21e-05	2.79E-04		279	0.88	7.91 × 10^–5 M	79.1			EC10, linear ([1]; MMP bioassay, dosing range all): no effect
CC1(C)C(O)C(C)(C)C1O (racemic) [r-TMCD, 2,2,4,4-Tetramethyl-1,3-cyclobutanediol (racemate)]	no cytotoxicity	no cytotoxicity									0.00844	8.29 × 10^–3 M	8290			EC10, linear ([1]; MMP bioassay, dosing range all): no effect; logEC10 ([1]; MMP bioassay, dosing range all, log-logistic model): no effect
Oc1ccc(C(c2ccc(O)cc2)(C(F)(F)F)C(F)(F)F)cc1 [BPAF, 4,4'-(1,1,1,3,3,3-Hexafluoropropane-2,2-diyl)diphenol]	7.35E-05	-4.18	3.05e-06	5.27e-06	5.37e-06	5.32e-06	5.32e-06	6.64E-05		66.4	3.07	2.28 × 10^–5 M	22.8			
CC1(C)[C@H](O)C(C)(C)[C@H]1O [t-TMCD, trans-2,2,4,4-Tetramethyl-1,3-cyclobutanediol]						0.0185	0.0185				0.00783	8.94 × 10^–3 M	8940	0.0554	0.00152	
O=S(=O)(c1ccc(O)cc1)c1ccccc1O [2,4-BPS, 2,4'-Dihydroxydiphenyl sulfone]			4.26e-05	5.93e-05	5.89e-05	5.9e-05	5.9e-05							11.47	0.47	Toxic ratio (TR) TRNOI (SH-SY5Y cells; human, 24 h): 1.29; logIC10 (SH-SY5Y cells; human, 24 h): -3.31; Specificity ratio (SRcytotoxicity) SRMMP ([1]; human, 24 h): 14.98
